Test results taken from US5013554A, “Oral pharmaceutical compositions containing dextrophan salts” (Prodotti Formenti s.r.l., priority 1988, dated 1991).
Counter-ions that a name gives are not always drawn.

Columns and labels:
[1] = pharmacokinetic study on guinea pigs under urethane anaesthesia, oral administration of dextrorphan citrate and tartrate; plasma dextrorphan by HPLC after β-glucuronidase hydrolysis; type: in vivo
Description: The results from a pharmacokinetic study effected on guinea pigs under urethane anesthaesia, to which dextrorphan citrate and tartrate had been administered by the oral route, are reported hereinbelow in order to show the good bioavailability of dextrorphan salts.
Dextrorphan dosages were measured by a high pressure liquid chromatography method.
The plasma samples were subjected, before the extraction, to enzymatic hydrolysis with β-glucuronidase, according to the method reported by T.EAST and D.DYE (Journal of Chromatography Biomedical Applications 388, 99-112, 1985).
After hydrolysis, plasma samples were alkalinized with sodium carbonate and extracted with benzene; benzene was re-extracted with 0.5 ml of 0.1 NHCl and 100 mcl were chromatographed under the following conditions:
COLUMN: Lichrosorb RP Select B Merck 5 λ, 25 cm ×4 mm inn. d.
MOBILE PHASE: Octanesulphonic acid sodium salt 0.01M solution in water. Acetonitrile mixture (68-32% ). The solution was then buffered to pH 3 with phosphoric acid.
DETECTOR: F 1000 MERCK HITACHI Fluorimeter exc.=280 nm; em.=310 nm

[2] = background; cited from earlier work
[3] = background; cited from earlier work; remark: listed apart in the source
[4] = test system: opiaceous receptors; details: background; cited from earlier work
[5] = background; compared with dextromethorphan; cited from earlier work
[6] = previously reported; cited from earlier work

| SMILES | oral absorption ([1]; in words) | concentration at 0.25 h ([1]; guinea pig, plasma, po, Table 2 (dextrorphan tartrate by order of b16), 15 minutes, read-out: Dextrorphan hematic levels) [ng/mL] | concentration at 0.5 h ([1]; guinea pig, plasma, po, Table 2 (dextrorphan tartrate by order of b16), 30 minutes, read-out: Dextrorphan hematic levels) [ng/mL] | concentration at 1 h ([1]; guinea pig, plasma, po, Table 2 (dextrorphan tartrate by order of b16), 60 minutes, read-out: Dextrorphan hematic levels) [ng/mL] | concentration at 2 h ([1]; guinea pig, plasma, po, Table 2 (dextrorphan tartrate by order of b16), 120 minutes, read-out: Dextrorphan hematic levels) [ng/mL] | concentration at 3 h ([1]; guinea pig, plasma, po, Table 2 (dextrorphan tartrate by order of b16), 180 minutes, read-out: Dextrorphan hematic levels) [ng/mL] | concentration at 5 h ([1]; guinea pig, plasma, po, Table 2 (dextrorphan tartrate by order of b16), 300 minutes, read-out: Dextrorphan hematic levels) [ng/mL] | antitussive action [2] | analgesic activity [3] | affinity to the opiaceous receptors [4] | toxicity [5] | use by the oral route [6] |
| --- | --- | --- | --- | --- | --- | --- | --- | --- | --- | --- | --- | --- |
| CN1CC[C@@]23CCCC[C@@H]2[C@@H]1Cc1ccc(O)cc13 [Dextrorphan citrate] | effectively absorbed |  |  |  |  |  |  |  |  |  |  |  |
| CN1CC[C@@]23CCCC[C@@H]2[C@@H]1Cc1ccc(O)cc13 [Dextrorphan] |  | 10 | 470 | 2500 | 3800 | 3000 | 3800 | remarkable antitussive action | lack of analgesic activity | lack of analgesic activity and of affinity to the opiaceous receptors | very low toxicity, even lower than that of dextromethorphan | not to be conveniently used by the oral route |
